Measured values as given in patent US8114880B2, “Piperidine or piperazine substituted tetrahydro-naphthalene-1-carboxylic acid MTP inhibiting compounds” (Janssen Pharmaceutica N.V., priority 2006, dated 2012).

What follows are compounds tested on HepG2 cells (assay: Quantification of the secretion of ApoB). Settings: 24 hours of incubation, pIC50 = -log IC50, listed as 8.
Assay type: cell-based
Procedure: HepG2 cells were cultured in 24-well plates in MEM Rega 3 containing 10% fetal calf serum. At 70% confluency, the medium was changed and the test compound or carrier (DMSO, 0.4% final concentration) was added. After 24 hours of incubation, the medium was transferred to Eppendorf tubes and cleared by centrifugation. A sheep antibody directed against either apoB was added to the supernatant and the mixture was kept at 8° C. for 24 hours. Then, rabbit anti-sheep antibody was added and the immune complex was allowed to precipitate for 24 hours at 8° C. The immunoprecipitate was pelleted by centrifugation for 25 minutes at 1320 g and washed twice with a buffer containing 40 mM Mops, 40 mM NaH2PO4, 100 mM NaF, 0.2 mM DTT, 5 mM EDTA, 5 mM EGTA, 1% Triton-X-100, 0.5% sodium deoxycholate (DOC), 0.1% SDS, 0.2 μM leupeptin and 0.2 μM PMSF. Radioactivity in the pellet was quantified by liquid scintillation counting. The IC50 values are usually converted to pIC50 values (=−log IC50 value) for ease of use.

Row | SMILES | pIC50
1 | C=CCOC(=O)[C@]1(c2ccccc2)CC[C@@H](C(=O)N2CCC(NC(=O)c3ccccc3OC)CC2)c2ccccc21 [Co. No. 8] | 8.188

Same assay, conditions: 24 hours of incubation, pIC50 = -log IC50, listed as 46

Row | SMILES | pIC50
2 | C=CCOC(=O)[C@]1(c2ccccc2)CC[C@@H](C(=O)N2CCC(NC(=O)c3ccccc3OC)CC2)c2ccccc21 [Co. No. 46] | 6.649

Same assay, conditions: Homo sapiens, HepG2, 24 h, 24 hours of incubation, pIC50 = -log IC50

Row | SMILES | IC50
3 | CCNC(=O)[C@]1(c2ccccc2)CC[C@@H](C(=O)N2CCC(NC(=O)c3ccccc3OC)CC2)c2ccccc21 (racemic) [Co. No. 7] | 2.28 nM
4 | CCOC(=O)[C@]1(c2ccccc2)CC[C@@H](C(=O)N2CCC(NC(=O)c3ccccc3OC)CC2)c2ccccc21 (racemic) [Co. No. 26] | 6.37 nM
5 | CCOC(=O)[C@@]1(c2ccccc2)CC[C@H](C(=O)N2CCC(NC(=O)c3ccccc3)CC2)c2ccccc21 (single isomer, unassigned) [Co. No. 32] | 7.52 nM
6 | CCNC(=O)[C@@]1(c2ccccc2)CC[C@H](C(=O)N2CCC(NC(=O)c3ccccc3OC)CC2)c2ccccc21 (single isomer, unassigned) [Co. No. 39] | 3.13 nM
7 | COc1ccccc1C(=O)NC1CCN(C(=O)[C@@H]2CC[C@@](C(N)=O)(c3ccccc3)c3ccccc32)CC1 (single isomer, unassigned) [Co. No. 41] | 35.8 nM
8 | COc1ccccc1C(=O)NC1CCN(C(=O)[C@@H]2CC[C@](C(N)=O)(c3ccccc3)c3ccccc32)CC1 (single isomer, unassigned) [Co. No. 43] | 267 nM
9 | COc1ccccc1C(=O)NC1CCN(C(=O)[C@H]2CC[C@@](C(N)=O)(c3ccccc3)c3ccccc32)CC1 (single isomer, unassigned) [Co. No. 44] | 106 nM
10 | O=C(NC1CCN(CC2CCC(C(=O)NCc3ccccc3)(c3ccccc3)c3ccccc32)CC1)c1ccccc1 (centres unmarked) [Co. No. 1] | 1840 nM
11 | O=C(NC1CCN(C(=O)C2CCC(C(=O)Nc3ccccc3)(c3ccccc3)c3ccccc32)CC1)c1ccccc1 (centres unmarked) [Co. No. 2] | 74.5 nM
12 | O=C(NC1CCN(C(=O)C2CCC(C(=O)NCc3ccccc3)(c3ccccc3)c3ccccc32)CC1)c1ccccc1 (centres unmarked) [Co. No. 3] | 80.5 nM
13 | CCCNC(=O)C1(c2ccccc2)CCC(C(=O)N2CCC(NC(=O)c3ccccc3)CC2)c2ccccc21 (centres unmarked) [Co. No. 4] | 228 nM
14 | CCCNC(=O)C1(c2ccccc2)CCC(CN2CCC(NC(=O)c3ccccc3)CC2)c2ccccc21 (centres unmarked) [Co. No. 5] | 1910 nM
15 | CCCNC(=O)C1(c2ccccc2)CCC(CN2CCC(NC(=O)c3ccccc3-c3ccc(C(F)(F)F)cc3)CC2)c2ccccc21 (centres unmarked) [Co. No. 6] | 20.4 nM
16 | CCNC(=O)[C@]1(c2ccccc2)CC[C@@H](C(=O)N2CCC(NC(=O)c3ccccc3-c3ccc(C(F)(F)F)cc3)CC2)c2ccccc21 [Co. No. 10] | 1.85 nM
17 | CCNC(=O)[C@]1(c2ccccc2)CC[C@H](C(=O)N2CCC(NC(=O)c3ccccc3-c3ccc(C(F)(F)F)cc3)CC2)c2ccccc21 [Co. No. 11] | > 100 nM
18 | CCNC(=O)[C@]1(c2ccccc2)CC[C@@H](CN2CCC(NC(=O)c3ccccc3OC)CC2)c2ccccc21 [Co. No. 15] | 186 nM
19 | CCNC(=O)[C@]1(c2ccccc2)CC[C@@H](CN2CCC(NC(=O)c3ccccc3-c3ccc(C(F)(F)F)cc3)CC2)c2ccccc21 [Co. No. 16] | 15 nM

Row | SMILES | IC50
20 | C=CCOC(=O)[C@]1(c2ccccc2)CC[C@@H](C(=O)N2CCC(NC(=O)c3ccccc3-c3ccc(C(F)(F)F)cc3)CC2)c2ccccc21 [Co. No. 19] | 7.57 nM
21 | CCNC(=O)[C@]1(c2ccccc2)CC[C@@H](C(=O)N2CC[C@@H](NC(=O)c3ccccc3OC)[C@@H](OC)C2)c2ccccc21 [Co. No. 20] | 22.9 nM
22 | CCNC(=O)[C@]1(c2ccccc2)CC[C@@H](C(=O)N2CCC(NC(=O)c3ccc(Cl)cc3OC)CC2)c2ccccc21 [Co. No. 21] | 27.6 nM
23 | CCNC(=O)[C@]1(c2ccccc2)CC[C@@H](C(=O)N2CCC(NC(=O)c3ccccc3C)CC2)c2ccccc21 [Co. No. 22] | 155 nM
24 | CCNC(=O)[C@]1(c2ccccc2)CC[C@@H](C(=O)N2CC[C@@H](NC(=O)c3cc(Cl)c(N)cc3OC)[C@@H](OC)C2)c2ccccc21 [Co. No. 23] | 232 nM
25 | CCOC(=O)[C@]1(c2ccccc2)CC[C@@H](C(=O)N2CCC(NC(=O)c3cc(Cl)c(N)cc3OC)CC2)c2ccccc21 [Co. No. 24] | 202 nM
26 | CCOC(=O)[C@]1(c2ccccc2)CC[C@@H](C(=O)N2CCN(C(=O)c3ccccc3OC)CC2)c2ccccc21 [Co. No. 27] | 778 nM
27 | CCOC(=O)[C@]1(c2ccccc2)CC[C@@H](C(=O)N2CCN(C(=O)c3ccc(C)cc3-c3ccc(C(F)(F)F)cc3)CC2)c2ccccc21 [Co. No. 28] | 329 nM
28 | CCOC(=O)[C@]1(c2ccccc2)CC[C@@H](C(=O)N2CCC(NC(=O)c3ccccc3)CC2)c2ccccc21 [Co. No. 33] | > 1000 nM
29 | CCOC(=O)[C@@]1(c2ccccc2)CC[C@H](C(=O)N2CCC(NC(=O)c3ccccc3OC)CC2)c2ccccc21 [Co. No. 34] | 3.79 nM
30 | CCOC(=O)[C@]1(c2ccccc2)CC[C@@H](C(=O)N2CCC(NC(=O)c3ccccc3OC)CC2)c2ccccc21 [Co. No. 35] | 5370 nM
31 | CCOC(=O)[C@@]1(c2ccccc2)CC[C@H](C(=O)N2CCC(NC(=O)c3ccccc3O)CC2)c2ccccc21 [Co. No. 36] | 11.7 nM
32 | COc1ccccc1C(=O)NC1CCN(C(=O)[C@H]2CC[C@](C(N)=O)(c3ccccc3)c3ccccc32)CC1 [Co. No. 40] | 70.6 nM
33 | CCOC(=O)[C@]1(c2ccccc2)CC[C@@H](C(=O)N2CCC(NC(=O)c3ccccc3O)CC2)c2ccccc21 [Co. No. 42] | 1000 nM
34 | C=CCOC(=O)[C@@]1(c2ccccc2)CC[C@H](C(=O)N2CCC(NC(=O)c3ccccc3OC)CC2)c2ccccc21 [Co. No. 45] | 2.63 nM
35 | CCOC(=O)CNC(=O)[C@@]1(c2ccccc2)CC[C@H](C(=O)N2CCC(NC(=O)c3ccccc3OC)CC2)c2ccccc21 [Co. No. 47] | 27.2 nM

The compounds below were run against MTP (Homo sapiens, UniProt P55157) (assay: MTP assay (triglyceride transfer from donor to acceptor vesicles)). Settings: MTP activity, percent triglyceride transfer from donor to acceptor vesicles, 37° C.
Assay type: biochemical
How it was run: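 Radiolabelled triglyceride transfer from donor vesicles (phosphatidylcholine, 7.5 mol % cardiolipin, 0.25 mol % glycerol tri[1-^14C]-oleate) to phosphatidylcholine acceptor vesicles with BSA, pH 7.5 Tris buffer; compounds in DMSO (0.13% final), 5 min preincubation at 37° C before MTP addition. Donor vesicles removed on DEAE-52; acceptor-supernatant ^14C counts give percent transfer.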

Sequence of MTP (P55157 19-894, species assumed): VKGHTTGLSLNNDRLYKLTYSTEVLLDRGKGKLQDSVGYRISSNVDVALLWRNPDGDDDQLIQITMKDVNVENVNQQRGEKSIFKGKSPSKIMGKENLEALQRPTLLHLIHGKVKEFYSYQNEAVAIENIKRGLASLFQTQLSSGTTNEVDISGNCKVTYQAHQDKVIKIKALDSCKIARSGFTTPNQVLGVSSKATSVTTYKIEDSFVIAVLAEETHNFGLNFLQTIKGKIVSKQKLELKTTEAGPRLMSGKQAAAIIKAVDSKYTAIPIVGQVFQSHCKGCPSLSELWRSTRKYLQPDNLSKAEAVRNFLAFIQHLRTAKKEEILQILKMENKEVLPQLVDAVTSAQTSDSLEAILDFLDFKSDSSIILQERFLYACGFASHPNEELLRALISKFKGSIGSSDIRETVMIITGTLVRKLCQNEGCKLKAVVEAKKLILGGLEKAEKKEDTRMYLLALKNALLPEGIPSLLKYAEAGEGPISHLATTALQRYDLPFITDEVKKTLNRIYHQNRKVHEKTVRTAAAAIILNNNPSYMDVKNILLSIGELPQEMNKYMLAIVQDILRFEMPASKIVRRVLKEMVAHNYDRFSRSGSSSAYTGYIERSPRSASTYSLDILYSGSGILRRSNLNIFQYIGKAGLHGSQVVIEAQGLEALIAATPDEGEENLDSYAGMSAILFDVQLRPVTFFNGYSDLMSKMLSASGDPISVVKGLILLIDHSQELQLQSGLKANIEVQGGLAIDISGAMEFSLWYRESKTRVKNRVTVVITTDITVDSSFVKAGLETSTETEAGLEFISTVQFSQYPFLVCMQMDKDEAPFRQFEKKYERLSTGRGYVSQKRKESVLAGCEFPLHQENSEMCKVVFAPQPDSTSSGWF
Sequence of MTP (P07237 18-508 partner, species assumed): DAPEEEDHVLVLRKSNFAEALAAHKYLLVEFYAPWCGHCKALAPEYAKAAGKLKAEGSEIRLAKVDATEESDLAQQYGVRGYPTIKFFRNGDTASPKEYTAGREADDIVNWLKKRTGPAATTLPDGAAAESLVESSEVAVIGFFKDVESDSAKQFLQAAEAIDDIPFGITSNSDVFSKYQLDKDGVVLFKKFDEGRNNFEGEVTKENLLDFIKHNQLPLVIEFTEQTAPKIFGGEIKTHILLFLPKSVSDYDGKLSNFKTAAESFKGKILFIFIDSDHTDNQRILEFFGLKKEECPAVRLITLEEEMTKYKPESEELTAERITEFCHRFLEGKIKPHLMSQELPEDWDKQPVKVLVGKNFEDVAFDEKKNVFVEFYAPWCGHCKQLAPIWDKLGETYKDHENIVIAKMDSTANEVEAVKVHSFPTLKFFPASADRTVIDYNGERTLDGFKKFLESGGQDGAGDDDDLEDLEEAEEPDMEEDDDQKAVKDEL

Row | SMILES | IC50
36 | CCNC(=O)[C@]1(c2ccccc2)CC[C@@H](C(=O)N2CCC(NC(=O)c3ccccc3OC)CC2)c2ccccc21 (racemic) [Co. No. 7] | 6.47 nM
37 | CCOC(=O)[C@]1(c2ccccc2)CC[C@@H](C(=O)N2CCC(NC(=O)c3ccccc3OC)CC2)c2ccccc21 (racemic) [Co. No. 26] | 1.92 nM
38 | CCOC(=O)[C@@]1(c2ccccc2)CC[C@H](C(=O)N2CCC(NC(=O)c3ccccc3)CC2)c2ccccc21 (single isomer, unassigned) [Co. No. 32] | 1.9 nM
39 | CCNC(=O)[C@@]1(c2ccccc2)CC[C@H](C(=O)N2CCC(NC(=O)c3ccccc3OC)CC2)c2ccccc21 (single isomer, unassigned) [Co. No. 39] | 3 nM
40 | COc1ccccc1C(=O)NC1CCN(C(=O)[C@@H]2CC[C@@](C(N)=O)(c3ccccc3)c3ccccc32)CC1 (single isomer, unassigned) [Co. No. 41] | > 10000 nM
41 | COc1ccccc1C(=O)NC1CCN(C(=O)[C@@H]2CC[C@](C(N)=O)(c3ccccc3)c3ccccc32)CC1 (single isomer, unassigned) [Co. No. 43] | 90.4 nM
42 | COc1ccccc1C(=O)NC1CCN(C(=O)[C@H]2CC[C@@](C(N)=O)(c3ccccc3)c3ccccc32)CC1 (single isomer, unassigned) [Co. No. 44] | > 1000 nM
43 | O=C(NC1CCN(C(=O)C2CCC(C(=O)NCc3ccccc3)(c3ccccc3)c3ccccc32)CC1)c1ccccc1 (centres unmarked) [Co. No. 3] | 17.7 nM
44 | CCCNC(=O)C1(c2ccccc2)CCC(C(=O)N2CCC(NC(=O)c3ccccc3)CC2)c2ccccc21 (centres unmarked) [Co. No. 4] | 42.4 nM
45 | CCCNC(=O)C1(c2ccccc2)CCC(CN2CCC(NC(=O)c3ccccc3-c3ccc(C(F)(F)F)cc3)CC2)c2ccccc21 (centres unmarked) [Co. No. 6] | 16 nM
46 | C=CCOC(=O)[C@]1(c2ccccc2)CC[C@@H](C(=O)N2CCC(NC(=O)c3ccccc3OC)CC2)c2ccccc21 [Co. No. 8] | 2.82 nM
47 | CCNC(=O)[C@]1(c2ccccc2)CC[C@@H](C(=O)N2CCC(NC(=O)c3ccccc3-c3ccc(C(F)(F)F)cc3)CC2)c2ccccc21 [Co. No. 10] | 1.96 nM
48 | CCNC(=O)[C@]1(c2ccccc2)CC[C@H](C(=O)N2CCC(NC(=O)c3ccccc3-c3ccc(C(F)(F)F)cc3)CC2)c2ccccc21 [Co. No. 11] | 217 nM
49 | CCNC(=O)[C@]1(c2ccccc2)CC[C@@H](CN2CCC(NC(=O)c3ccccc3OC)CC2)c2ccccc21 [Co. No. 15] | 50.2 nM
50 | CCNC(=O)[C@]1(c2ccccc2)CC[C@@H](CN2CCC(NC(=O)c3ccccc3-c3ccc(C(F)(F)F)cc3)CC2)c2ccccc21 [Co. No. 16] | 3.2 nM
51 | C=CCOC(=O)[C@]1(c2ccccc2)CC[C@@H](C(=O)N2CCC(NC(=O)c3ccccc3-c3ccc(C(F)(F)F)cc3)CC2)c2ccccc21 [Co. No. 19] | 4.63 nM
52 | CCNC(=O)[C@]1(c2ccccc2)CC[C@@H](C(=O)N2CC[C@@H](NC(=O)c3ccccc3OC)[C@@H](OC)C2)c2ccccc21 [Co. No. 20] | 12.6 nM
53 | CCNC(=O)[C@]1(c2ccccc2)CC[C@@H](C(=O)N2CCC(NC(=O)c3ccc(Cl)cc3OC)CC2)c2ccccc21 [Co. No. 21] | 9.84 nM
54 | CCNC(=O)[C@]1(c2ccccc2)CC[C@@H](C(=O)N2CCC(NC(=O)c3ccccc3C)CC2)c2ccccc21 [Co. No. 22] | 28.9 nM
55 | CCNC(=O)[C@]1(c2ccccc2)CC[C@@H](C(=O)N2CC[C@@H](NC(=O)c3cc(Cl)c(N)cc3OC)[C@@H](OC)C2)c2ccccc21 [Co. No. 23] | 60.3 nM
56 | CCOC(=O)[C@]1(c2ccccc2)CC[C@@H](C(=O)N2CCC(NC(=O)c3cc(Cl)c(N)cc3OC)CC2)c2ccccc21 [Co. No. 24] | 54.8 nM
57 | CCOC(=O)[C@]1(c2ccccc2)CC[C@@H](C(=O)N2CCN(C(=O)c3ccccc3OC)CC2)c2ccccc21 [Co. No. 27] | 65.2 nM
58 | CCOC(=O)[C@]1(c2ccccc2)CC[C@@H](C(=O)N2CCN(C(=O)c3ccc(C)cc3-c3ccc(C(F)(F)F)cc3)CC2)c2ccccc21 [Co. No. 28] | > 100 nM
59 | CCOC(=O)[C@]1(c2ccccc2)CC[C@@H](C(=O)N2CCC(NC(=O)c3ccccc3)CC2)c2ccccc21 [Co. No. 33] | > 1000 nM
60 | CCOC(=O)[C@@]1(c2ccccc2)CC[C@H](C(=O)N2CCC(NC(=O)c3ccccc3OC)CC2)c2ccccc21 [Co. No. 34] | 1.16 nM
61 | CCOC(=O)[C@]1(c2ccccc2)CC[C@@H](C(=O)N2CCC(NC(=O)c3ccccc3OC)CC2)c2ccccc21 [Co. No. 35] | 1710 nM
62 | CCOC(=O)[C@@]1(c2ccccc2)CC[C@H](C(=O)N2CCC(NC(=O)c3ccccc3O)CC2)c2ccccc21 [Co. No. 36] | 3.47 nM
63 | COc1ccccc1C(=O)NC1CCN(C(=O)[C@H]2CC[C@](C(N)=O)(c3ccccc3)c3ccccc32)CC1 [Co. No. 40] | > 10000 nM
64 | CCOC(=O)[C@]1(c2ccccc2)CC[C@@H](C(=O)N2CCC(NC(=O)c3ccccc3O)CC2)c2ccccc21 [Co. No. 42] | > 10000 nM
65 | CCOC(=O)CNC(=O)[C@@]1(c2ccccc2)CC[C@H](C(=O)N2CCC(NC(=O)c3ccccc3OC)CC2)c2ccccc21 [Co. No. 47] | 2.37 nM
